Experimental findings from patent US11040028B2, “Penicinotam derivative, preparation method and use thereof” (OCEAN UNIVERSITY OF CHINA, priority 2017, dated 2021) are described below.

Molecules are shown by their SMILES. Some results are limits rather than exact numbers.

What all share (type): cell-based
Experiment [1] concerns mouse macrophages (RAW264.7). In words: Lipopolysaccharide-induced NO secretion in macrophages (Griess). The conditions noted are these: Mus musculus, RAW264.7, 24 h, RAW264.7, LPS 1 μg/ml, a/b isomers given as first/second symbol, read-out: IC50 (μM), inhibition of lipopolysaccharide-induced NO secretion in macrophages. The essentials: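 Absorbance at 548 nm after Griess reagent addition to culture supernatant gave NO content; inhibition rate was derived relative to blank control. Cells were mouse RAW264.7 macrophages exposed to compounds and 1 μg/ml LPS for 24 hours.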
For orientation: Nitrite, measured by Griess reagent, commonly stands in for NO production.

The test system of experiment [2] is human fibrosarcoma cells HT-1080. In words: Anti-fibrosis activity test: inhibition of proliferation of human fibrosarcoma cells HT-1080 (CCK-8). The conditions noted are these: Homo sapiens, HT-1080, 48 h, human fibrosarcoma cells HT-1080, CCK-8, 48 hours. The gist of the method:
(§1)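 Read-out: absorbance at 450 nm after 2 h with CCK-8, following 48 h of compound exposure of adhered cells (2×10^4 cells/mL, 24 h attachment, 37° C, 5% CO2). Proliferation inhibition was taken relative to the blank control, and IC50 values were calculated from it.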

For experiment [3], the system named is human hepatic stellate cells LX-2. Nature of the experiment: Anti-fibrosis activity test: inhibition of proliferation of human hepatic stellate cells LX-2 (CCK-8). As to conditions: Homo sapiens, 48 h, human hepatic stellate cells LX-2, CCK-8, 48 hours. The essentials: as §1
For experiment [4], the system named is human embryonic lung fibroblast IMR-90. Nature of the experiment: Anti-fibrosis activity test: inhibition of proliferation of human embryonic lung fibroblast IMR-90 (CCK-8). The conditions noted are these: human embryonic lung fibroblast IMR-90, CCK-8, 48 hours. The gist of the method: as §1
Experiment [5] has as its system cardiac fibroblast RAT-iCell-C002. In words: Anti-fibrosis activity test: inhibition of proliferation of cardiac fibroblast RAT-iCell-C002 (CCK-8). As to conditions: Cardiac fibroblast, 48 h, cardiac fibroblast RAT-iCell-C002, CCK-8, 48 hours. The essentials:
as §1

The test system of experiment [6] is BHK-21 cells. In words: Anti-fibrosis activity test: inhibition of BHK-21 cell proliferation (CCK-8). As to conditions: Mesocricetus auratus, BHK-21, 48 h, CCK-8, 48 hours after administration. The gist of the method:
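Proliferation of BHK-21 cells is measured by CCK-8 at 450 nm following 48 h compound exposure at several concentrations. Inhibition is expressed relative to blank control and IC50 is computed from it.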

In experiment [7] the test system is human lung fibroblasts HFL1. In words: Anti-fibrosis activity test: inhibition of proliferation of human lung fibroblasts HFL1 (CCK-8). As to conditions: Homo sapiens, HFL1, 48 h, human lung fibroblasts HFL1, CCK-8, 48 hours. The essentials:
as §1

For experiment [8], the system named is NF-κB. In words: Immunological activity test: inhibition of NF-κB activity. As to conditions: initial concentration of 30 μM; a/b isomers given as first/second symbol; read-out: IC50 (μM), inhibitory activity against NF-κB. The essentials:
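NF-κB inhibition was tested at an initial 30 μM compound concentration, with parthenolide as positive control, and IC50 values were determined from follow-up analysis.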

Experiment [9] has as its system human dermal fibroblasts CCC-ESF-1. Nature of the experiment: Anti-fibrosis activity test: inhibition of proliferation of human dermal fibroblasts CCC-ESF-1 (CCK-8). The conditions noted are these: Fibroblast; human dermal fibroblasts CCC-ESF-1, CCK-8, 48 hours. The essentials:
as §1

One may read the IC50 as the concentration that inhibits the measured activity by half. For the compound `O=C(COc1c2c(nc3ccccc13)-c1cccn1C2=O)c1ccc(Cl)cc1` [Compound 90b, 9-(2-(4-chlorophenyl)-2-oxoethoxy)-10H-pyrrolizino[1,2-b]quinolin-10-one], the IC50 in experiment [1] lay within 0.1 to 1 µM; in experiment [2] it was 5 to 20 mM; in [3], 0.05 to 5 mM; in experiment [4] it was 0.05 to 5 mM; in [5] it was 0.05 to 5 mM; in [6] it was 0.05 to 5 mM. Also, the results for the IC50 in experiment [7], in [8] and in experiment [9] were 0.05 to 5 mM, 1 to 10 µM and 0.05 to 5 mM, respectively.

`O=C(COc1c2c(nc3ccccc13)-c1cccn1C2=O)c1ccc(C(F)(F)F)cc1` [Compound 91b, 9-(2-oxo-2-(4-(trifluoromethyl)phenyl)ethoxy)-10H-pyrrolizino[1,2-b]quinolin-10-one]: the IC50 in experiment [1] lay within 0.1 to 1 µM; in experiment [2] it was 0.05 to 5 mM; in experiment [3] it was 5 to 20 mM; in experiment [4] it was 0.05 to 5 mM; in experiment [5], 0.05 to 5 mM; in experiment [6], 0.05 to 5 mM. The values for the IC50 in [7], in experiment [8] and in experiment [9] were less than 0.05 mM, 1 to 10 µM and 0.05 to 5 mM, respectively.

Regarding `O=C1c2c(n(C(=O)c3ccco3)c3ccccc3c2=O)-c2cccn21` [Compound 95a, 4-(Furan-2-carbonyl)-9H-pyrrolizino[1,2-b]quinoline-9,10(4H)-dione], the IC50 was 1 to 10 µM in experiment [1]; less than 0.05 mM in [2]; less than 0.05 mM in [3]; less than 0.05 mM in [4]; 0.05 to 5 mM in experiment [5]; 0.05 to 5 mM in experiment [6]. Also, the IC50 is 0.05 to 5 mM in [7], 1 to 10 µM in experiment [8] and 0.05 to 5 mM in experiment [9].

Consider `O=C(Oc1c2c(nc3ccccc13)-c1cccn1C2=O)c1ccco1` [Compound 95b, 10-oxo-10H-pyrrolizino[1,2-b]quinolin-9-ylfuran-2-carboxylate], for which the IC50 in [1] was 1 to 10 µM; in experiment [2], 0.05 to 5 mM; in [3], less than 0.05 mM; in experiment [4], 0.05 to 5 mM; in experiment [5], 0.05 to 5 mM; in experiment [6], 0.05 to 5 mM. For the same compound, the IC50 in experiment [7] lay within 0.05 to 5 mM; in experiment [8] it was 1 to 10 µM; in experiment [9], 0.05 to 5 mM.

Take `O=C1c2c(n(CCN3CCNCC3)c3ccccc3c2=O)-c2cccn21` [Compound 98a, 4-(2-(Piperazin-1-yl)ethyl)-9H-pyrrolizino[1,2-b]quinoline-9,10(4H)-dione]: the IC50 in experiment [1] is 1 to 10 µM; in experiment [2], 0.05 to 5 mM; in [3], less than 0.05 mM; in experiment [4], less than 0.05 mM; in [5] it was 0.05 to 5 mM; in [6], less than 0.05 mM. Also, the IC50 in experiment [7] was 0.05 to 5 mM; in experiment [8], 1 to 10 µM; in [9] it was less than 0.05 mM.

Consider `O=C1c2c(nc3ccccc3c2OCCN2CCNCC2)-c2cccn21` [Compound 98b, 9-(2-(piperazin-1-yl)ethoxy)-10H-pyrrolizino[1,2-b]quinolin-10-one], for which the IC50 lay within 1 to 10 µM in experiment [1]; 0.05 to 5 mM in experiment [2]; 0.05 to 5 mM in [3]; 0.05 to 5 mM in experiment [4]; 0.05 to 5 mM in experiment [5]; 0.05 to 5 mM in [6]. Further, the IC50 in experiment [7] lay within 0.05 to 5 mM; in [8] it was 1 to 10 µM; in experiment [9], 0.05 to 5 mM.

Regarding `O=C(O)Cn1c2c(c(=O)c3ccccc31)C(=O)n1cccc1-2` [Compound 100a, 2-(9,10-Dioxo-9H-pyrrolizino[1,2-b]quinolin-4(10H)-yl)acetic acid], the IC50 is 0.1 to 1 µM in experiment [1]; 0.05 to 5 mM in [2]; 0.05 to 5 mM in experiment [3]; 0.05 to 5 mM in experiment [4]; 0.05 to 5 mM in experiment [5]; 0.05 to 5 mM in [6]. The figures for the IC50 in [7], in [8] and in experiment [9] were less than 0.05 mM, 1 to 10 µM and 0.05 to 5 mM, respectively.

`O=C(O)COc1c2c(nc3ccccc13)-c1cccn1C2=O` [Compound 100b, 2-((10-oxo-10H-pyrrolizino[1,2-b]quinolin-9-yl)oxy)acetic acid]: the IC50 in [1] is 1 to 10 µM; in experiment [2], 0.05 to 5 mM; in experiment [3], 0.05 to 5 mM; in experiment [4] it was 0.05 to 5 mM; in experiment [5], 0.05 to 5 mM; in experiment [6], 0.05 to 5 mM. For the same compound, the IC50 fell in the range of 0.05 to 5 mM in experiment [7], 1 to 10 µM in experiment [8] and 0.05 to 5 mM in experiment [9].

Turning to `O=C1c2c(n(Cc3ccccc3)c3ccccc3c2=O)-c2cccn21` [Compound 103a, 4-Benzyl-9H-pyrrolizino[1,2-b]quinoline-9,10(4H)-dione], the IC50 is 0.1 to 1 µM in experiment [1]; 0.05 to 5 mM in [2]; 0.05 to 5 mM in experiment [3]; less than 0.05 mM in experiment [4]; 0.05 to 5 mM in experiment [5]; 0.05 to 5 mM in [6]. Besides, the IC50 was in the range of 0.05 to 5 mM in experiment [7], 1 to 10 µM in experiment [8] and 0.05 to 5 mM in experiment [9].

Turning to `O=C1c2c(nc3ccccc3c2OCc2ccccc2)-c2cccn21` [Compound 103b, 9-(benzyloxy)-10H-pyrrolizino[1,2-b]quinolin-10-one], the IC50 is 1 to 10 µM in [1]; 0.05 to 5 mM in experiment [2]; 0.05 to 5 mM in experiment [3]; less than 0.05 mM in experiment [4]; 0.05 to 5 mM in [5]; 0.05 to 5 mM in experiment [6]. The IC50 in experiment [7] is 0.05 to 5 mM; in experiment [8] it was 1 to 10 µM; in experiment [9], 0.05 to 5 mM.

For `CC(C)=CCn1c2c(c(=O)c3cc(F)ccc31)C(=O)n1cccc1-2` [Compound 112a, 7-Fluoro-4-(3-methylbut-2-en-1-yl)-9H-pyrrolizino[1,2-b]quinoline-9,10(4H)-dione], the IC50 is 1 to 10 µM in experiment [1]; 0.05 to 5 mM in [2]; 0.05 to 5 mM in experiment [3]; 0.05 to 5 mM in experiment [4]; 0.05 to 5 mM in experiment [5]; 5 to 20 mM in [6]. In addition, the IC50 in experiment [7] was 0.05 to 5 mM; in experiment [8], 10 to 50 µM; in [9] it was 0.05 to 5 mM.

`CC(C)=CCOc1c2c(nc3ccc(F)cc13)-c1cccn1C2=O` [Compound 112b, 7-fluoro-9-((3-methylbut-2-en-1-yl)oxy)-10H-pyrrolizino[1,2-b]quinolin-10-one]: the IC50 in experiment [1] lay within 1 to 10 µM; in [2], 0.05 to 5 mM; in experiment [3], 0.05 to 5 mM; in experiment [4] it was 0.05 to 5 mM; in experiment [5] it was 0.05 to 5 mM; in [6] it was 0.05 to 5 mM. Further, the figures for the 50% inhibitory concentration (IC50) in experiment [7], in [8] and in [9] were 0.05 to 5 mM, 1 to 10 µM and 0.05 to 5 mM, respectively.

As to `O=C1c2c(n(CCc3ccccc3)c3ccc(F)cc3c2=O)-c2cccn21` [Compound 141a, 7-Fluoro-4-phenethyl-9H-pyrrolizino[1,2-b]quinoline-9,10(4H)-dione], the IC50 in [1] was 1 to 10 µM; in experiment [2] it was 0.05 to 5 mM; in experiment [3], 0.05 to 5 mM; in experiment [4] it was 0.05 to 5 mM; in experiment [5] it was 0.05 to 5 mM; in experiment [6] it was 0.05 to 5 mM. The values for the IC50 in experiment [7], in experiment [8] and in experiment [9] were 0.05 to 5 mM, 1 to 10 µM and less than 0.05 mM, respectively.

With `O=C1c2c(nc3ccc(F)cc3c2OCCc2ccccc2)-c2cccn21` [Compound 141b, 7-Fluoro-9-phenethoxy-10H-pyrrolizino[1,2-b]quinolin-10-one], the IC50 in [1] fell in the range of 1 to 10 µM; in experiment [2], 0.05 to 5 mM; in experiment [3], 0.05 to 5 mM; in experiment [4] it was 0.05 to 5 mM; in [5], 0.05 to 5 mM; in [6], 0.05 to 5 mM. Also, the IC50 was in the range of 0.05 to 5 mM in experiment [7], 0.1 to 1 µM in [8] and 5 to 20 mM in [9].

In the case of `Cn1c2c(c(=O)c3cc(F)ccc31)C(=O)n1cccc1-2` [Compound 157a, 7-Fluoro-4-methyl-9H-pyrrolizino[1,2-b]quinoline-9,10(4H)-dione], the IC50 in experiment [1] was in the range of 0.1 to 1 µM; in [2], 0.05 to 5 mM; in experiment [3] it was 0.05 to 5 mM; in experiment [4], 0.05 to 5 mM; in [5], 0.05 to 5 mM; in experiment [6], 5 to 20 mM. The IC50 fell in the range of 0.05 to 5 mM in experiment [7], 10 to 50 µM in experiment [8] and 0.05 to 5 mM in experiment [9].
